Results taken from BindingDB's records for doi:10.7270/Q2PN941W (The Scripps Research Institute Molecular Screening Center, 2007).
Structures can show the parent of a compound that is named as a salt.

molecular target: Sphingosine 1-phosphate receptor 3 (Homo sapiens, UniProt Q99500); experiment: S1P3 reporter-cell activation, dose response, counter-screen for 5HT1E agonist project (AID 730)
Sequence (Q99500 whole entry): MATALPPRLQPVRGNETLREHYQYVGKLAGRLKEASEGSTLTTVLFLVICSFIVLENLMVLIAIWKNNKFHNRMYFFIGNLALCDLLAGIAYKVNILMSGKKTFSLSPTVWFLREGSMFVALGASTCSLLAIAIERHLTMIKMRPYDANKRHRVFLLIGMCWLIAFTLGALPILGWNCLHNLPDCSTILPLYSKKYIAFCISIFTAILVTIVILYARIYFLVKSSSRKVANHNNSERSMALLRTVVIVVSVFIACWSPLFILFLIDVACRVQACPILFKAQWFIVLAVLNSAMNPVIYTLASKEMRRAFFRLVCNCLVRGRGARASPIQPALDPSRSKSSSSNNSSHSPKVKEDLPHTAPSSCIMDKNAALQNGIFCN

`c1ccc2sc(C3CCCNC3)nc2c1` (stereo not given) [SMR000067014] and `C1=C(c2c[nH]c3ccccc23)CCNC1` cannot be ordered by EC50: over 40 µM for the first, over 40 µM for the second.

`O=S(=O)(c1cccc(Cl)c1)N1CCCC1` [MLS000063405] and `Cc1cccc(N2CCN(C(=O)Cc3c(C(=O)O)[nH]c4ccc(Cl)cc34)CC2)c1C` [5-chloranyl-3-[2-[4-(2,3-dimethylphenyl)piperazin-1-yl]-2-oxidanylidene-ethyl]-1H-indole-2-carboxylic acid] cannot be ordered by EC50: over 40 µM for the first, over 40 µM for the second.

`CCc1ccc(NC(=O)Cn2c(SC)nc3ccccc32)cc1` [N-(4-ethylphenyl)-2-[2-(methylthio)-1-benzimidazolyl]acetamide] and `CC(=O)Nc1ccc(S(=O)(=O)N(C)c2ccc(O)cc2)cc1` [MLS000081936] cannot be ordered by EC50: over 40 µM for the first, over 40 µM for the second.

`CCOC(=O)C1CCN(C(c2cccnc2)c2c(NC(=O)c3ccco3)sc(C)c2C)CC1` (stereo not given) [SMR000019649] and `CCOC(=O)C1CCN(C(=O)Cc2c(C(=O)O)n(C)c3ccccc23)CC1` [3-{2-[4-(ethoxycarbonyl)piperidin-1-yl]-2-oxoethyl}-1-methyl-1H-indole-2-carboxylic acid] cannot be ordered by EC50: over 40 µM for the first, over 40 µM for the second.

`CN(C)CCOC(=O)c1cn(Cc2ccccc2)c2ccccc12` [2-(dimethylamino)ethyl 1-(phenylmethyl)indole-3-carboxylate;hydrochloride] and `Cn1cc(C(Cc2ccccc2)N=O)c2ccccc21` (stereo not given) [1-(1-methyl-3-indolyl)-2-phenylethanone oxime] cannot be ordered by EC50: over 40 µM for the first, over 40 µM for the second.

`CNCCc1c[nH]c2ccccc12` [N-OMEGA-METHYLTRYPTAMINE] and `O=C(O)C1CCCCC1C(=O)NCCc1c[nH]c2ccccc12` (stereo not given) [2-[2-(1H-indol-3-yl)ethylcarbamoyl]cyclohexane-1-carboxylic acid] cannot be ordered by EC50: over 40 µM for the first, over 40 µM for the second.

`COc1cc(CN2CCN(c3cccc(C)c3C)CC2)cc(OC)c1O` [4-[[4-(2,3-dimethylphenyl)piperazin-1-yl]methyl]-2,6-dimethoxy-phenol] and `COc1ccc(CN2CCN(c3ccccc3F)CC2)c(OC)c1` cannot be ordered by EC50: over 40 µM for the first, over 40 µM for the second.

`Cc1[nH]c2ccccc2c1C1=CCNCC1` [MLS000045807] and `CN1CC=C(c2c[nH]c3ccccc23)CC1` [MLS000120058] cannot be ordered by EC50: over 40 µM for the first, over 40 µM for the second.

`COc1ccc(N(CC(=O)NC2CCCC2)C(=O)Cn2nnc(-c3ccc(C)cc3)n2)cc1OC` [N-[2-(cyclopentylamino)-2-oxoethyl]-N-(3,4-dimethoxyphenyl)-2-[5-(4-methylphenyl)tetrazol-2-yl]acetamide] and `CCOC(=O)C1C(C)=NC(=O)NC1c1ccc(OCC(=O)Nc2ccccc2)c(OC)c1` (stereo not given) [SMR000093032] cannot be ordered by EC50: over 40 µM for the first, over 40 µM for the second.

`NCCc1c[nH]c2ccc(F)cc12` [MLS000047815] and `CCCCc1ccc2[nH]cc(CCN)c2c1` cannot be ordered by EC50: over 40 µM for the first, over 40 µM for the second.

`O=C(Nc1cccc(-c2cn3ccsc3n2)c1)c1ccccc1` [N-[3-(6-imidazo[2,1-b]thiazolyl)phenyl]benzamide] and `Cc1cccc(NC(=O)C2CCCN(C(=O)Nc3ccccc3)C2)c1C` (stereo not given) [SMR000006943] cannot be ordered by EC50: over 40 µM for the first, over 40 µM for the second.

`CCCCN(C)CCCNC(=O)Cn1c(=O)sc2ccccc21` [N-{3-[butyl(methyl)amino]propyl}-2-(2-oxo-1,3-benzothiazol-3(2H)-yl)acetamide] and `CN(C)CCCn1c(NC(=O)C2CCCCC2)nc2ccccc21` cannot be ordered by EC50: over 40 µM for the first, over 40 µM for the second.

`COc1ccc2[nH]cc(CCN(C)C)c2c1` [3-(2-DIMETHYLAMINOETHYL)-5-METHOXYINDOLE] and `CCCCN(CC)Cc1ccc(CNC(=O)Nc2ccc(OC)cc2OC)o1` [1-[[5-[[butyl(ethyl)amino]methyl]furan-2-yl]methyl]-3-(2,4-dimethoxyphenyl)urea] cannot be ordered by EC50: over 40 µM for the first, over 40 µM for the second.

Going from `CCOC(=O)c1oc2ccccc2c1NC(=O)c1cc(OC)cc(OC)c1` [ethyl 3-[(3,5-dimethoxybenzoyl)amino]-1-benzofuran-2-carboxylate] to `CCOC(=O)c1cc2ccc(OC(=O)c3ccco3)cc2oc1=O` [ethyl 7-(2-furoyloxy)-2-oxo-2H-chromene-3-carboxylate], the EC50 falls from over 40 µM to 10.5 µM.

`Cc1noc(C)c1COc1ccc(C(=O)OC(C)C(=O)Nc2ccc(N3CCOCC3)cc2)cc1` (stereo not given) [[1-[(4-morpholin-4-ylphenyl)amino]-1-oxidanylidene-propan-2-yl] 4-[(3,5-dimethyl-1,2-oxazol-4-yl)methoxy]benzoate] and `CCc1nn(C(C)C(=O)NCCN2CCN(c3cccc(C)c3C)CC2)c(=O)c2cc3occc3n12` (stereo not given) [SMR000029605] cannot be ordered by EC50: over 40 µM for the first, over 40 µM for the second.

`CC[C@@H](CO)NC(=O)[C@@H]1C=C2c3cccc4c3c(cn4C)C[C@H]2N(C)C1` [METHYSERGIDE MALEATE] and `CCOC(=O)c1c(C)nc(-c2ccccc2)nc1NC(=O)CC` [ethyl 4-methyl-2-phenyl-6-(propionylamino)pyrimidine-5-carboxylate] cannot be ordered by EC50: over 40 µM for the first, over 40 µM for the second.

`O=C(NCc1ccccc1)NC1(C(=O)N2CCCC2)CCCCC1` [1-Benzyl-3-[1-(pyrrolidine-1-carbonyl)-cyclohexyl]-urea] and `C[N+]1=C2CCCCCN2C(O)(c2ccccc2)C1` (stereo not given) [MLS000048587] cannot be ordered by EC50: over 40 µM for the first, over 40 µM for the second.

`CN1CCN(C(N=O)c2nonc2N)CC1` (stereo not given) and `CN1CCN2c3ccccc3Cc3ccccc3C2C1` (stereo not given) [MIANSERIN HYDROCHLORIDE] cannot be ordered by EC50: over 40 µM for the first, over 40 µM for the second.

`CSc1nc2ccc(NC(=O)C3CCCO3)cc2s1` (stereo not given) [N-[2-(methylthio)-1,3-benzothiazol-6-yl]-2-oxolanecarboxamide] and `O=C(COC(=O)CCC1CCCC1)Nc1ccc(Cl)cn1` [[2-[(5-chloropyridin-2-yl)amino]-2-oxoethyl] 3-cyclopentylpropanoate] cannot be ordered by EC50: over 40 µM for the first, over 40 µM for the second.

`Cc1[nH]c2c(C(F)(F)F)cccc2c1CCN` [2-[2-methyl-7-(trifluoromethyl)-1H-indol-3-yl]ethanamine;hydrochloride] and `Cc1[nH]c2c(Cl)cccc2c1CCN` cannot be ordered by EC50: over 40 µM for the first, over 40 µM for the second.

`Cc1cc(C(C)(C)C)c(O)c(C)c1CC1=NCCN1` [SMR000059324] and `Cc1cc(C(C)(C)C)cc(C)c1CC1=NCCN1` [SMR000058526] cannot be ordered by EC50: over 40 µM for the first, over 40 µM for the second.

`COC(=O)CC(=O)Cc1nc(N)nc(Nc2ccc(C)c(C)c2)n1` [4-[4-amino-6-(3,4-dimethylanilino)-1,3,5-triazin-2-yl]-3-oxobutanoic acid methyl ester] and `CC(CCc1ccccc1)NC(=O)CSc1nc(N)cc(N)n1` (stereo not given) [MLS000254508] cannot be ordered by EC50: over 40 µM for the first, over 40 µM for the second.

`CCN1CC=C(c2c[nH]c3ccccc23)CC1` [MLS000093713] and `c1ccc(N2CCN(Cc3cn4cccnc4n3)CC2)cc1` cannot be ordered by EC50: over 40 µM for the first, over 40 µM for the second.

`Cc1c(CN2CCN(c3cccc(C(F)(F)F)c3)CC2)c(=O)n(-c2ccccc2)n1C` and `Cn1c(-c2ccccc2)cnc1SCc1nc(O)c2ccccc2n1` [MLS000077265] cannot be ordered by EC50: over 40 µM for the first, over 40 µM for the second.

`CCN(CC)c1nc(N2CCOCC2)c(C#N)c2c1CN(C)CC2` [1-(diethylamino)-7-methyl-3-morpholin-4-yl-6,8-dihydro-5H-2,7-naphthyridine-4-carbonitrile] and `CC1CN(c2nnnn2-c2ccccc2)CC(C)O1` (stereo not given) [SMR000109556] cannot be ordered by EC50: over 40 µM for the first, over 40 µM for the second.
